Experimental data as given in patent US20220332802A1, “METHODS AND COMPOSITIONS FOR TREATMENT OF NEURODEGENERATION” (Children's Hospital Medical Center, priority 2019, published 2022).

What was measured:
C5aR1 = target: T1, C5aR1 (Homo sapiens, UniProt P21730); conditions: cited from earlier work
T1 sequence (P21730 1-350): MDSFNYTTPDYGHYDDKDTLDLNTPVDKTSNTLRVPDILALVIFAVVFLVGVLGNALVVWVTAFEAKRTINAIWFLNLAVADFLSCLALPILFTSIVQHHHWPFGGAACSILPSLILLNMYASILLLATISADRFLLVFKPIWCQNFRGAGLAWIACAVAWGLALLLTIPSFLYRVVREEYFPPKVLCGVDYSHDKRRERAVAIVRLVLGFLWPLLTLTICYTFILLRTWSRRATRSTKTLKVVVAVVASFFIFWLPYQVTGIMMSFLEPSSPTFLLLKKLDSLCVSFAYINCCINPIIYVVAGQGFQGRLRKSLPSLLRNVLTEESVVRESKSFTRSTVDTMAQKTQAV

[1] = target: T2, glucocerebrosidase (GCase) (Mus musculus, UniProt P17439); experiment: Targeting of GCase with CBE in WT and C5aR1-/- mice, 60-day observation; format: in vivo; conditions: CBE-injected WT mice
T2 construct: from tissue; brain examined
T2 sequence (P17439 20-515): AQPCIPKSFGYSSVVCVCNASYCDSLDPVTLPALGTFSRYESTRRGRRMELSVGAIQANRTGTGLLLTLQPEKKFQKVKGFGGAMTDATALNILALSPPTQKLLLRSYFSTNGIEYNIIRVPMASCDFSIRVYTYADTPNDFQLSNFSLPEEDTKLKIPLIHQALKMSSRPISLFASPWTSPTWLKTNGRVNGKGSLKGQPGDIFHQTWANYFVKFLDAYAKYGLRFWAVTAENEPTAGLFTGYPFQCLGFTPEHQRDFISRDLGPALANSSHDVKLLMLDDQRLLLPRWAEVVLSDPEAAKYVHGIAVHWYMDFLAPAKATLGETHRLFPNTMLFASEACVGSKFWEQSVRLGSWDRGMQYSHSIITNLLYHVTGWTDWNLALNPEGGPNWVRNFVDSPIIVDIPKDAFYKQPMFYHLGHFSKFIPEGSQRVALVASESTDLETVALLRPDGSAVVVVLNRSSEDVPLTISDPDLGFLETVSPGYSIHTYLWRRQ
From the text: 9V/null mice suffered from massive accumulation of GC in the brain and loss of neurons. Applicant targeted glucocerebrosidase (GCase) with conduritol B epoxide (CBE) in WT and C5aR1^−/− mice. Strikingly, CBE-injected WT mice died within 30 days.

GCase [2] = target: T3, GCase (Mus musculus, UniProt P17439); design: from tissue; brain examined; conditions: i.p. 50 mg/kg/day for 4 weeks; cited from earlier work
T3 sequence (P17439 20-515): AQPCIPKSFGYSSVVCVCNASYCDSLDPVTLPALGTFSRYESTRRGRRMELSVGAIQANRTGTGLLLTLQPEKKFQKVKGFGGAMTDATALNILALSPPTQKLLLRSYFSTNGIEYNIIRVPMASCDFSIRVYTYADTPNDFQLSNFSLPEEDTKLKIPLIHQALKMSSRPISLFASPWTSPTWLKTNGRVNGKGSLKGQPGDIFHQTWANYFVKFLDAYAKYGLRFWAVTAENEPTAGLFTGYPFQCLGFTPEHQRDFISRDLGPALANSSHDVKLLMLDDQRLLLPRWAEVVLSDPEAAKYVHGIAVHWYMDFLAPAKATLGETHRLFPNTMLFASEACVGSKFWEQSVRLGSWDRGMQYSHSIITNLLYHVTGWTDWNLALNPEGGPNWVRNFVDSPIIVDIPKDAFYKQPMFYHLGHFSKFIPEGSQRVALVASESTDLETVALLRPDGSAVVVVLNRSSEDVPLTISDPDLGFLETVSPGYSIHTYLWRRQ

GCase [3] = target: T3, GCase
[4] = test system: experimental Gaucher disease; conditions: cited from earlier work

Molecule: Cyclo[N2-(1-Oxo-3-phenylpropyl)-Orn-Pro-D-Cha-Trp-Arg] [PMX 205]
- concentration at which the peptide specifically targets C5aR1 (C5aR1): nanomolar concentrations
- manner of action at C5aR1 (C5aR1): pseudo-irreversible and insurmountable

Molecule: O[C@H]1[C@H](O)[C@@H](O)[C@@H]2O[C@@H]2[C@@H]1O (racemic) [CBE, conduritol B epoxide]
- time to death [1]: ≤ 30 days
- reduction of GCase activity (GCase [2]): 25-50%
- motor, memory and reactivity behaviour (GCase [3]; CBE-GCase targeted WT or C5aR1-/- mice, FIG. 8): no motor or memory defects but are hyper-reactive
- brain glucosylceramide (GCase [3]; brain of CBE-GCase targeted PD mouse model, FIG. 1): increased glucosylceramide
- brain C5a and C5aR1 (GCase [3]; brains of CBE-GCase targeted PD mouse model, FIG. 2): increased C5a and C5aR1
- brain pro-inflammatory cytokines (GCase [3]; brains of CBE-GCase targeted PD mouse model, FIG. 3): increased pro-inflammatory cytokines

B1: C5a-(1-66, Cys27Ala)-A8B-Del.71-73) (protein)
chain: TLQKKIEEIAAKYKHSVVKKCCYDGAAVNNDETCEQRAARISLGPRCIKAFTECCVVASQLRANISFKRS
modifications: (C5a-(1-66,Cys27Ala)-A8B-Del 71-73)
notes: mutein of human C5a that targets C5aR1 and C5aR2 simultaneously
- survival and disease signs [4]: increase survival and reverse disease signs
